Results from patent US20210128609A1, “ONCOLOGY TREATMENTS USING ZINC AGENTS” (XYLONIX IP HOLDINGS PTE. LTD., priority 2018, published 2021).

Legend:
Assay type in all cases: cell-based
[1] = system: PANC-1; assay: CellTiter-Glo cell viability, PANC-1
Protocol: (§1) The 50% inhibitory concentration (IC50) was determined in the cancer cell lines using CellTiter-Glo luminescent cell viability assay after incubation with different concentrations of active agents. Each cell line was treated with active Zn(II) agent, a standard chemotherapy drug as reference control, and culture medium as vehicle control. Cell Lines. All cell lines were cultured in media supplemented with 10-15% FBS, at a temperature of 37° C., 5% CO2, and 95% humidity. The reference control drug for all cell lines was cisplatin, to be used for genomic analysis. The cell lines tested, the tissue of origin are shown below in Table 1: Procedure for Determining Half Maximal Inhibition Concentration IC50 • 1. Harvested cells during the logarithmic growth period and count cell number using Count-star. • 2. Adjusted cell concentrations to 4.44×10^4 cells/mL with respective culture medium. • 3. Added 90 μL cell suspensions to two 96-well plates (plates A and B) with the final cell density of 4×10^3 cells/well. (cell concentration was adjusted according to the data base or density optimization assay.) • 4a. Next day: For the plates of TO reading: • 1) Added 10 μL culture medium to each well of plate A for TO reading. • 2) Equilibrated the plate and its content at RT for approximately 30 min. • 3) Added 50 μL CellTiter-Glo reagent to each well. • 4) Mixed content for 5 min on an orbital shaker to induce cell lysis. • 5) Allowed the plate to incubate at RT for 20 min to stabilize luminescent signal. • 6) Recorded luminescence (TO) using EnVision Multi Label Reader. • 4b. For the plates of test reading: • 1) Prepared 10× solution of Zn(II) agent test article. […] The formula for calculating surviving rate is shown below and the absolute IC50 (EC50) was calculated according to the dose-response curve generated by GraphPad Prism 5.0. • 12) The surviving rate (%)=(LumTest article−LumMedium control)/(LumNon-treated−LumMedium control)×100%.

[2] = system: L-363; assay: CellTiter-Glo cell viability, L-363
Protocol: as §1

[3] = system: AsPC-1; assay: CellTiter-Glo cell viability, AsPC-1
Protocol: as §1

[4] = system: MCF7; assay: CellTiter-Glo cell viability, MCF7
Protocol: The 50% inhibitory concentration (IC50) was determined in the cancer cell lines using CellTiter-Glo luminescent cell viability assay after incubation with different concentrations of active agents. Each cell line was treated with active Zn(II) agent, a standard chemotherapy drug as reference control, and culture medium as vehicle control. Cell Lines. All cell lines were cultured in media supplemented with 10-15% FBS, at a temperature of 37° C., 5% CO2, and 95% humidity. The reference control drug for all cell lines was cisplatin, to be used for genomic analysis. The cell lines tested, the tissue of origin are shown below in Table 1: Procedure for Determining Half Maximal Inhibition Concentration IC50 • 1. Harvested cells during the logarithmic growth period and count cell number using Count-star. • 2. Adjusted cell concentrations to 4.44×10^4 cells/mL with respective culture medium. • 3. Added 90 μL cell suspensions to two 96-well plates (plates A and B) with the final cell density of 4×10^3 cells/well. (cell concentration was adjusted according to the data base or density optimization assay.) • 4a. […]

[5] = system: 50 cancer cell lines; assay: 50 cell line screen, summary of eradication; details: out of 50 cell lines
Protocol: as §1, with “control.” for “control. Cell Lines. All cell lines were cultured in media supplemented with 10-15% FBS, at a temperature of 37° C., 5% CO2, and 95% humidity. The reference control drug for all cell lines was cisplatin, to be used for genomic analysis. The cell lines tested, the tissue of origin are shown below in Table 1:”, “control)×100%. Stratifying the cell line panel makeup, the 50 cell lines included 30 blood cancers (17 leukemia and 13 lymphoma cell lines) and 20 solid tumor cancers, including breast (3), cervical (1), colorectum (1), liver (4), lung (4), ovarian (2), pancreas (2), prostate (2), and uterine (1) cancer cell lines.” for “control)×100%.”

[6] = system: OCI-AML2; assay: CellTiter-Glo cell viability, OCI-AML2
Protocol: as §1

[7] = system: MOLP8; assay: CellTiter-Glo cell viability, MOLP8
Protocol: as §1

[8] = system: OCI-LY-19; assay: CellTiter-Glo cell viability, OCI-LY-19
Protocol: as §1

[9] = 96 h, top conc. 50 μg/mL Zn(II) agent, 100 μM cisplatin

SMILES: N.N.[Cl][Pt][Cl] [Cisplatin]
- Absolute IC50 ([1]; 96 h, CellTiter-Glo): 1.08 µg/mL
- % inhibition at top conc. [1, 9]: 96.35%
- HillSlope ([1]; 96 h dose-response fit): −0.62
- Absolute IC50 ([2]; 96 h, CellTiter-Glo): 0.83 µg/mL
- % inhibition at top conc. [2, 9]: 99.98%
- HillSlope ([2]; 96 h dose-response fit): −2.08
- Absolute IC50 ([3]; 96 h, CellTiter-Glo): 0.67 µg/mL
- % inhibition at top conc. [3, 9]: 81.58%
- HillSlope ([3]; 96 h dose-response fit): −1.47
- % inhibition at top conc. [4, 9]: 96.37%
- HillSlope ([4]; 96 h dose-response fit): −0.60
- number of cell lines with more than 97% eradication [5]: 45
- number of cell lines with more than 99% eradication [5]: 39
- number of cell lines with poor response of less than 90% eradication [5]: 2
- Absolute IC50 ([6]; 96 h, CellTiter-Glo): 0.33 µg/mL
- % inhibition at top conc. [6, 9]: 99.96%
- HillSlope ([6]; 96 h dose-response fit): −2.66
- Absolute IC50 ([7]; 96 h, CellTiter-Glo): 0.16 µg/mL
- % inhibition at top conc. [7, 9]: 99.98%
- HillSlope ([7]; 96 h dose-response fit): −2.16
- Absolute IC50 ([8]; 96 h, CellTiter-Glo): 0.04 µg/mL
- % inhibition at top conc. [8, 9]: 99.99%
- HillSlope ([8]; 96 h dose-response fit): −2.61
